According to ChEMBL document CHEMBL4665748, “Heimiomycins A-C and Calamenens from the African Basidiomycete Heimiomyces sp” (J Nat Prod, 2020):
pIC50: −log10 of the molar value. ≈ marks a conversion by molar mass, not a printed value. Calls of active or inactive are those of the source. The calls are words filed in the database; no cut-off is given here.

How the values were obtained:
Bacillus subtilis = experiment: Antimicrobial activity against Bacillus subtilis DSM10 by serial dilution method; type: functional
Micrococcus luteus = experiment: Antimicrobial activity against Micrococcus luteus DSM1790 by serial dilution method; type: functional
Staphylococcus aureus = experiment: Antimicrobial activity against Staphylococcus aureus DSM346 by serial dilution method; type: functional
KB 3-1 = experiment: Cytotoxicity against human KB3.1 cells assessed as reduction in cell viability by MTT assay; type: functional, cell-based
[1] = system: Mycolicibacterium smegmatis; experiment: Antimicrobial activity against Mycobacterium smegmatis DSM44200 by serial dilution method; type: functional
Mucor hiemalis = experiment: Antimicrobial activity against Mucor hiemalis DSM2656 by serial dilution method; type: functional
Candida albicans = experiment: Antimicrobial activity against Candida albicans DSM1665 by serial dilution method; type: functional
L929 = experiment: Cytotoxicity against mouse L929 cells assessed as reduction in cell viability by MTT assay; type: functional, cell-based; settings: for pIC50: Mus musculus, L929, read-out: IC50
Wickerhamomyces anomalus = experiment: Antimicrobial activity against Pichia anomala DSM6766 by serial dilution method; type: functional

| Compound | MIC (Bacillus subtilis) | MIC (Micrococcus luteus) | MIC (Staphylococcus aureus) | MIC [1] | MIC (Mucor hiemalis) | MIC (Candida albicans) | also measured |
| --- | --- | --- | --- | --- | --- | --- | --- |
| CN(C)[C@@H]1C(O)=C(C(N)=O)C(=O)[C@@]2(O)C(O)=C3C(=O)c4c(O)cccc4[C@@](C)(O)[C@H]3[C@H](O)[C@@H]12 [OXYTETRACYCLINE] | 9.2 µg/mL (≈ 20 µM) | 0.3 µg/mL (≈ 0.652 µM) | – | – | – | – | – |
| GENTAMICIN | – | – | 9.2 µg/mL | – | – | – | – |
| COc1c(O)c2c(c3cnc4c(c13)C(=O)C=C(C)C4=O)[C@@H](C(C)C)CC[C@@H]2C | 6.3 µg/mL (≈ 16.6 µM) | 6.3 µg/mL (≈ 16.6 µM) | 50 µg/mL (≈ 132 µM) | inactive | 50 µg/mL (≈ 132 µM) | 100 µg/mL (≈ 264 µM) | IC50 (KB 3-1): Not Active; IC50 (L929; l929): Not Active; MIC (Wickerhamomyces anomalus; Hansenula anomala): 100 µg/mL (≈ 264 µM) |
| NYSTATIN | – | – | – | – | 9.2 µg/mL | 9.2 µg/mL | MIC (Wickerhamomyces anomalus): 4.6 µg/mL |
| CC1=CC(=O)C(c2c(C=O)c(O)c(O)c3c2[C@@H](C(C)C)CC[C@@H]3C)=C(O)C1=O | 12.5 µg/mL (≈ 32.5 µM) | 3.1 µg/mL (≈ 8.06 µM) | 50 µg/mL (≈ 130 µM) | 100 µg/mL (≈ 260 µM) | 25 µg/mL (≈ 65 µM) | 100 µg/mL (≈ 260 µM) | IC50 (KB 3-1): Not Active; pIC50 (L929): 5.26; MIC (Wickerhamomyces anomalus; Hansenula anomala): 100 µg/mL (≈ 260 µM) |
| NC[C@H]1O[C@H](O[C@H]2[C@H](O)[C@@H](O[C@H]3O[C@H](CO)[C@@H](O)[C@H](N)[C@H]3O)[C@H](N)C[C@@H]2N)[C@H](O)[C@@H](O)[C@@H]1O [KANAMYCIN] | – | – | – | 0.6 µg/mL (≈ 1.24 µM) | – | – | – |
| C/C(=C\c1csc(C)n1)[C@@H]1C[C@@H]2O[C@]2(C)CCC[C@H](C)[C@H](O)[C@@H](C)C(=O)C(C)(C)[C@@H](O)CC(=O)O1 [PATUPILONE] | – | – | – | – | – | – | pIC50 (L929): 8.59 |
